Experimental data published in patent publication US11000033B2, “Ketone or oxime compound, and herbicide” (NISSAN CHEMICAL CORPORATION, priority 2014, dated 2021).

Legend:
Assay type in all cases: in vivo
[1] = test system: Echinochloa oryzacola Vasing.; experiment: Test Example 1: herbicidal activity, application before weed generation in submerged conditions (symbol A); conditions: application herbicide amount 320 g/ha
Method in brief: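 In a flooded pot test with alluvial soil, the emulsion-formulated compound was diluted with water to a predetermined amount and applied to the floodwater immediately on the sowing day. Pots were held in a greenhouse at 25–30 °C for 3 weeks before each weed was rated.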

[2] = test system: Echinochloa oryzacola Vasing.; experiment: Test Example 2: herbicidal activity, application during weed generation in submerged conditions (symbol A); conditions: Table 23; application herbicide amount 320 g/ha; grade 0-5 by criteria of Test Example 1
Method in brief: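 Scoring of herbicidal effect took place 3 weeks after treatment, using the criteria of the earlier test. Treatment was water-surface application of diluted emulsifiable compound at a set dose. Plants were at one- to two-leaf stage in submerged alluvial soil (4 cm depth), greenhouse 25-30° C.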

[3] = test system: Echinochloa crus-galli var. crus-galli; experiment: Test Example 3: herbicidal effect by foliage application, Wagner pot (symbol H); conditions: application herbicide amount 320 g/ha
Method in brief: (§1)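 Foliar spray of a water-diluted emulsion at a predetermined herbicide amount, applied to 14-day-old plants. Seedlings were raised in flooded alluvial soil (0.1–0.5 cm water) at 25–30 °C in a greenhouse. Injury was rated after 3 weeks against fixed criteria.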

[4] = test system: Cyperus difformis; experiment: Test Example 3: herbicidal effect by foliage application, Wagner pot (symbol E); conditions: application herbicide amount 320 g/ha
Method in brief: as §1

[5] = test system: Echinochloa crus-galli var. crus-galli; experiment: Test Example 4: herbicidal effect by soil treatment (symbol H)
Method in brief: (§2)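 Seeds were sown in sterilized diluvial soil, covered with about 1.5 cm of soil, and the soil surface was sprayed with a water-diluted emulsion of the compound at a predetermined rate. Plants grew in a greenhouse at 25° C. to 30° C.; effects were scored visually 3 weeks after application.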

[6] = test system: Apera spica-venti; experiment: Test Example 4: herbicidal effect by soil treatment (symbol L)
Method in brief: as §2

[7] = test system: Amaranthus retroflexus; experiment: Test Example 4: herbicidal effect by soil treatment (symbol N)
Method in brief: as §2

[8] = test system: Setaria viridis; experiment: Test Example 5: herbicidal effect by foliage application, plastic box (symbol G); conditions: 320 g/ha, 3 weeks after application
Method in brief: (§3)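 Herbicide, formulated as an emulsion and diluted in water, is sprayed onto the aerial parts of 14-day seedlings. These were grown at 25° C. to 30° C. in sterilized diluvial soil; effects are graded after 3 weeks.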

[9] = test system: Apera spica-venti; experiment: Test Example 5: herbicidal effect by foliage application, plastic box (symbol L); conditions: 320 g/ha, 3 weeks after application
Method in brief: as §3

[10] = test system: Stellaria media; experiment: Test Example 5: herbicidal effect by foliage application, plastic box (symbol P); conditions: 320 g/ha, 3 weeks after application
Method in brief: as §3

[11] = test system: soybean; experiment: Test Example 5: effect on crop by foliage application, plastic box (symbol d); conditions: 320 g/ha, 3 weeks after application
Method in brief: (§4)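 Greenhouse test at 25° C. to 30° C. Seeds of crops and weeds were spot-sown in boxes of sterilized diluvial soil under roughly 1.5 cm soil cover, then grown for foliage treatment.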

[12] = test system: rice plant; experiment: Test Example 5: effect on crop by foliage application, plastic box (symbol b); conditions: 320 g/ha, 3 weeks after application
Method in brief: as §4

[13] = test system: beet; experiment: Test Example 5: effect on crop by foliage application, plastic box (symbol f); conditions: 320 g/ha, 3 weeks after application
Method in brief: as §4

[14] = application herbicide amount 320 g/ha

Row | SMILES | Herbicidal effect grade, A: Echinochloa oryzacola Vasing. [1] | Herbicidal effect grade, A: Echinochloa oryzacola Vasing. [2] | G: Setaria viridis, herbicidal effect grade [8] | L: Apera spica-venti, herbicidal effect grade [9] | P: Stellaria media, herbicidal effect grade [10] | d: soybean, effect on crop grade [11] | b: directly sowed rice plant, effect on crop grade [12] | f: beet, effect on crop grade [13] | herbicidal effect on H (Echinochloa crus-galli var. crus-galli), grade 0-5 [3] | herbicidal effect on E, grade 0-5 [4] | H (Echinochloa crus-galli var. crus-galli) herbicidal effect grade [5, 14] | L (Apera spica-venti) herbicidal effect grade [6, 14] | N (Amaranthus retroflexus) herbicidal effect grade [7, 14] | further results
1 | CC#Cc1cc(C)c(C2=C(OC(=O)COc3ccccc3)CC(CC(=NOC)C(C)C)C2=O)c(C)c1 (stereo not drawn) [9-003] | 5 (Herbicidal ratio of 90% or more (almost completely withered)) | 5 (Herbicidal ratio of 90% or more (almost completely withered)) | 5 (Herbicidal ratio of 90% or more (almost completely withered)) | 5 (Herbicidal ratio of 90% or more (almost completely withered)) | 3 (Herbicidal ratio of 40% or higher and lower than 70%) | 4 (Herbicidal ratio of 70% or higher and lower than 90%) | 5 (Herbicidal ratio of 90% or more (almost completely withered)) | 1 (Herbicidal ratio of 5% or higher and lower than 20%) | – | – | – | – | – | H (Echinochloa crus-galli var. crus-galli) herbicidal effect grade ([3]; Table 24): 5 (Herbicidal ratio of 90% or more (almost completely withered)); E herbicidal effect grade ([4]; Table 24): 5 (Herbicidal ratio of 90% or more (almost completely withered)); Herbicidal effect grade, H: Echinochloa crus-galli var. crus-galli [5, 14]: 5 (Herbicidal ratio of 90% or more (almost completely withered)); Herbicidal effect grade, L: Apera spica-venti [6, 14]: 5 (Herbicidal ratio of 90% or more (almost completely withered)); Herbicidal effect grade, N: Amaranthus retroflexus [7, 14]: 0 (Herbicidal ratio of 5% or lower (almost no effect))
2 | CCC(CC1CC(O)=C(c2c(C)cc(C)cc2C)C1=O)=NOC (stereo not drawn) [1-038] | 5 (Herbicidal ratio of 90% or more (almost completely withered)) | 5 (Herbicidal ratio of 90% or more (almost completely withered)) | 5 (Herbicidal ratio of 90% or more (almost completely withered)) | 5 (Herbicidal ratio of 90% or more (almost completely withered)) | 0 (Herbicidal ratio of 5% or lower (almost no effect)) | 4 (Herbicidal ratio of 70% or higher and lower than 90%) | 5 (Herbicidal ratio of 90% or more (almost completely withered)) | 1 (Herbicidal ratio of 5% or higher and lower than 20%) | 5 (Herbicidal ratio of 90% or more (almost completely withered)) | 5 (Herbicidal ratio of 90% or more (almost completely withered)) | 5 (Herbicidal ratio of 90% or more (almost completely withered)) | 5 (Herbicidal ratio of 90% or more (almost completely withered)) | 3 (Herbicidal ratio of 40% or higher and lower than 70%) | –
3 | CC(CC1CC(O)=C(c2c(C)cc(C)cc2C)C1=O)=NOCC=CCl (stereo not drawn) [1-056] | 5 (Herbicidal ratio of 90% or more (almost completely withered)) | 5 (Herbicidal ratio of 90% or more (almost completely withered)) | 5 (Herbicidal ratio of 90% or more (almost completely withered)) | 5 (Herbicidal ratio of 90% or more (almost completely withered)) | 0 (Herbicidal ratio of 5% or lower (almost no effect)) | 4 (Herbicidal ratio of 70% or higher and lower than 90%) | 5 (Herbicidal ratio of 90% or more (almost completely withered)) | 0 (Herbicidal ratio of 5% or lower (almost no effect)) | 5 (Herbicidal ratio of 90% or more (almost completely withered)) | 5 (Herbicidal ratio of 90% or more (almost completely withered)) | 5 (Herbicidal ratio of 90% or more (almost completely withered)) | 5 (Herbicidal ratio of 90% or more (almost completely withered)) | 3 (Herbicidal ratio of 40% or higher and lower than 70%) | –
4 | CON=C(CC1CC(O)=C(c2c(C)cc(C)cc2C)C1=O)C1CCCC1 (stereo not drawn) [1-078] | 5 (Herbicidal ratio of 90% or more (almost completely withered)) | 4 (Herbicidal ratio of 70% or higher and lower than 90%) | – | – | – | – | – | – | 5 (Herbicidal ratio of 90% or more (almost completely withered)) | 0 (Herbicidal ratio of 5% or lower (almost no effect)) | – | – | – | H: Echinochloa crus-galli var. crus-galli, herbicidal effect grade ([5]; 320 g/ha): 2 (Herbicidal ratio of 20% or higher and lower than 40%); L: Apera spica-venti, herbicidal effect grade ([6]; 320 g/ha): 4 (Herbicidal ratio of 70% or higher and lower than 90%); N: Amaranthus retroflexus, herbicidal effect grade ([7]; 320 g/ha): 0 (Herbicidal ratio of 5% or lower (almost no effect)); G: Setaria viridis, herbicidal effect (criteria 0-5) [8]: 5 (Herbicidal ratio of 90% or more (almost completely withered)); L: Apera spica-venti, herbicidal effect (criteria 0-5) [9]: 3 (Herbicidal ratio of 40% or higher and lower than 70%); P: Stellaria media, herbicidal effect (criteria 0-5) [10]: 0 (Herbicidal ratio of 5% or lower (almost no effect)); d: soybean, effect on crop (criteria 0-5) [11]: 0 (Herbicidal ratio of 5% or lower (almost no effect)); b: directly sowed rice plant, effect on crop (criteria 0-5) [12]: 5 (Herbicidal ratio of 90% or more (almost completely withered)); f: beet, effect on crop (criteria 0-5) [13]: 0 (Herbicidal ratio of 5% or lower (almost no effect))
5 | CC(CC1CC(O)=C(c2c(C)cc(C)cc2C)C1=O)=NOCC(=O)N1CCOCC1 (stereo not drawn) [1-025] | 4 (Herbicidal ratio of 70% or higher and lower than 90%) | 1 (Herbicidal ratio of 5% or higher and lower than 20%) | 4 (Herbicidal ratio of 70% or higher and lower than 90%) | 5 (Herbicidal ratio of 90% or more (almost completely withered)) | 4 (Herbicidal ratio of 70% or higher and lower than 90%) | 3 (Herbicidal ratio of 40% or higher and lower than 70%) | 4 (Herbicidal ratio of 70% or higher and lower than 90%) | 0 (Herbicidal ratio of 5% or lower (almost no effect)) | 5 (Herbicidal ratio of 90% or more (almost completely withered)) | 5 (Herbicidal ratio of 90% or more (almost completely withered)) | 5 (Herbicidal ratio of 90% or more (almost completely withered)) | 5 (Herbicidal ratio of 90% or more (almost completely withered)) | 0 (Herbicidal ratio of 5% or lower (almost no effect)) | –
6 | CON=C(C)CC1CC(OC(=O)COc2cccc(OC)c2)=C(c2c(C)cc(C)cc2C)C1=O (stereo not drawn) [1-068] | 5 (Herbicidal ratio of 90% or more (almost completely withered)) | 5 (Herbicidal ratio of 90% or more (almost completely withered)) | 5 (Herbicidal ratio of 90% or more (almost completely withered)) | 5 (Herbicidal ratio of 90% or more (almost completely withered)) | 3 (Herbicidal ratio of 40% or higher and lower than 70%) | 4 (Herbicidal ratio of 70% or higher and lower than 90%) | 5 (Herbicidal ratio of 90% or more (almost completely withered)) | 3 (Herbicidal ratio of 40% or higher and lower than 70%) | 5 (Herbicidal ratio of 90% or more (almost completely withered)) | 5 (Herbicidal ratio of 90% or more (almost completely withered)) | 5 (Herbicidal ratio of 90% or more (almost completely withered)) | 5 (Herbicidal ratio of 90% or more (almost completely withered)) | 4 (Herbicidal ratio of 70% or higher and lower than 90%) | –
